This note sets out measurements from article PMC8319832, “Fine-Tuning of Alkaline Residues on the Hydrophilic Face Provides a Non-toxic Cationic α-Helical Antimicrobial Peptide Against Antibiotic-Resistant ESKAPE Pathogens” (Frontiers in Microbiology, 2021).

In brackets after ≈: the same amount, converted by molar mass. Where a SMILES comes first, the peptide text is derived from it.

Data set [1] has as its system human embryonic kidney cell 293T (HEK293T). Nature of the data set: Cytotoxicity, CCK-8. The format is cell-based. The following applies: up to 40 μg ml^–1, 24 h, CCK-8, OD 450 nm, three independent experiments. On the procedure: (§1) The cytotoxicity of the peptide was determined against mouse fibroblast cells L929 and human embryonic kidney cell 293T (HEK293T). Briefly, the cells were seeded at a density of 8,000 cells per well in a 96-well plate and cultured for 24 h in Dulbecco’s Modified Eagle Medium (DMEM, Gibco) supplemented with 10% fetal bovine serum (FBS, Gibco), 2 mM L-glutamine, 100 U ml^–1 penicillin, […] streptomycin (1% P/S, Invitrogen^TM), and at 37°C in a 5% of CO2 atmosphere. Then, different concentrations of the peptide (0, 10, 20, 30, and 40 μg ml^–1) were added into each well and co-incubated with the cells for 24 h. After 2 h incubation with 10 μM 2-(2-methoxy-4-nitrophenyl)-3-(4-nitrophenyl)-5-(2,4-disulfophenyl)-2H-tetrazolium (CCK-8, Yeasen, China), the cytotoxicity of the peptide was determined by measuring the optical density at 450 nm ([Wu et al., 2014]; [Li et al., 2020]).

Data set [2] concerns mouse fibroblast cells L929. In words: Cytotoxicity, CCK-8. The format is cell-based. The following applies: at 40 μg ml^–1, 24 h, CCK-8, OD 450 nm, three independent experiments. The protocol: as §1
A further data set concerns healthy ICR mice. In words: In vivo systemic toxicity. The arrangement: species or system mouse. The protocol: Healthy ICR mice (male, 6–8 weeks old, ∼30 g) were used to determine the in vivo systemic toxicity of the peptide ([Chen et al., 2013]). The mice were randomly divided into six groups (n = 10). Five cohorts were intraperitoneally injected with a single dose of 10, 20, 40, 80, and 160 mg kg^–1 body weight of the peptide dissolved in PBS. The mice injected with PBS were used as control. The survival of mice was inspected for 7 days. All surviving mice were euthanized at the end of the experiments.
For histopathological examination, each group of ICR mice (n = 6) was injected intraperitoneally with PBS or with a single dose of 40 mg kg^–1 body weight of the peptide. At 1, 2, and 7-day post-injection, the mice were euthanized, and the liver, kidney and spleen were collected and fixed with 4% formaldehyde for haematoxylin and eosin staining.

The subject of a further data set is S. epidermidis 6943. Nature of the data set: MIC, broth dilution. The format is cell-based. To be noted: CLSI broth dilution, MHB, 37°C, 20 h, OD630, at least three repeats; clinical isolate, MRSE. An excerpt:
(§2) All experiments were repeated at least three times.
On the technique in general: Broth dilution looks for growth in wells or tubes with falling amounts of substance.

A further data set concerns E. faecalis 901. In words: MIC, broth dilution. Format: cell-based. To be noted: CLSI broth dilution, MHB, 37°C, 20 h, OD630, at least three repeats; clinical isolate.
From the text: as §2

The test system of another data set is S. epidermidis 888. In words: MIC, broth dilution. The format is cell-based. The following applies: CLSI broth dilution, MHB, 37°C, 20 h, OD630, at least three repeats; clinical isolate.
From the text: as §2

The next data set concerns S. epidermidis 9092. Nature of the data set: MIC, broth dilution. Format: cell-based. The following applies: CLSI broth dilution, MHB, 37°C, 20 h, OD630, at least three repeats; clinical isolate, MRSE.
From the text: as §2

For a further data set, the system named is A. baumannii ATCC 19606. Nature of the data set: MIC, broth dilution. Format: cell-based, Acinetobacter baumannii. On the procedure:
as §2
To study the influence of physiological ions on the antimicrobial activities of the peptides, The MICs of the peptides were also determined against the standard bacterial strains cultured in MHB containing various salts at their physiological concentrations (150 mM NaCl, 4.5 mM KCl, 1 mM MgCl2, 2 mM CaCl2, 6 μM NH4HCO3, and 4 μM FeCl3) ([Ma et al., 2016]).

Usually MIC stands for the least concentration at which growth counts as inhibited. On to `CC[C@H](C)[C@H](NC(=O)[C@H](CCCCN)NC(=O)[C@H](CCCCN)NC(=O)[C@@H](NC(=O)[C@@H](N)Cc1ccccc1)[C@@H](C)CC)C(=O)N[C@@H](C)C(=O)N[C@@H](CCCCN)C(=O)N[C@@H](CC(C)C)C(=O)N[C@@H](CC(C)C)C(=O)N[C@@H](CCCCN)C(=O)N[C@@H](CCCCN)C(=O)N[C@H](C(=O)N[C@@H](Cc1ccccc1)C(N)=O)[C@@H](C)CC` [BmKn2-7K] (H-FIKKIAKLLKKIF-NH2), for which the “cytotoxicity (cell viability)” value is reported as “non-toxic” in data set [1] and “minor cytotoxicity” in data set [2]. Besides, in the data set on healthy ICR mice (single intraperitoneal dose 40 mg kg^–1 body weight, 1, 2 and 7 days post-treatment, n = 6, haematoxylin-eosin), the “histopathological examination of liver, spleen and kidney” value was “no necrosis or drug-induced injury was observed”. Moreover, the “mice surviving for 7 days” value with healthy ICR mice (single intraperitoneal dose 80 mg kg^–1 body weight, n = 10) amounted to 60%. Moreover, the survival of mice entry in the data set with healthy ICR mice (single intraperitoneal dose 160 mg kg^–1 body weight, n = 10) was “died within 24 h”. For the same compound, in the data set on healthy ICR mice (single intraperitoneal dose up to 40 mg kg^–1 body weight, n = 10 per cohort), the “survival of mice for 7 days” value is given as “all mice”. In addition, the “median lethal dose (LD50)” value in the data set on healthy ICR mice (single intraperitoneal injection, ICR mice, 7 days) is “exceeds 80 mg kg^–1 body weight”. Besides, the MIC was 2.5 µg/mL (≈ 1.57 µM) against S. epidermidis 6943; 10 µg/mL (≈ 6.29 µM) with E. faecalis 901; 2.5 µg/mL (≈ 1.57 µM) in the data set on S. epidermidis 888; 2.5 µg/mL (≈ 1.57 µM) in the data set with S. epidermidis 9092; 2.5 µg/mL (≈ 1.57 µM) against A. baumannii ATCC 19606 (CLSI broth dilution, MHB, 37°C, 20 h, OD630, at least three repeats, standard strain); 5 µg/mL (≈ 3.15 µM) against A. baumannii ATCC 19606 (MHB with 4 μM FeCl3). Moreover, the MIC against A. baumannii ATCC 19606 (MHB with 6 μM NH4HCO3) was found to be 5 µg/mL (≈ 3.15 µM); in the data set on A. baumannii ATCC 19606 (MHB with 1 mM MgCl2) it was 2.5 µg/mL (≈ 1.57 µM); in the data set with A. baumannii ATCC 19606 (MHB with 2 mM CaCl2), 2.5 µg/mL (≈ 1.57 µM); against A. baumannii ATCC 19606 (MHB with 4.5 mM KCl) it was 5 µg/mL (≈ 3.15 µM); with A. baumannii ATCC 19606 (MHB with 150 mM NaCl), 2.5 µg/mL (≈ 1.57 µM); in the data set with A. baumannii ATCC 19606 (salt sensitivity test, MHB, control without addition of salt ions), 2.5 µg/mL.
